Source: patent US20090148850A1, “Methods for identifying modulators of P2RY14” (priority 2007, published 2009)

Columns and labels:
mouse P2RY14 [1] = biological target: T1, mouse P2RY14 (Mus musculus, UniProt Q9ESG6); test: FLIPR whole cell Ca2+ agonist assay, HEK cells expressing mouse P2RY14 and Gqi5; format: cell-based
T1 construct: expressed in transfected cells
T1 sequence (Q9ESG6 1-338): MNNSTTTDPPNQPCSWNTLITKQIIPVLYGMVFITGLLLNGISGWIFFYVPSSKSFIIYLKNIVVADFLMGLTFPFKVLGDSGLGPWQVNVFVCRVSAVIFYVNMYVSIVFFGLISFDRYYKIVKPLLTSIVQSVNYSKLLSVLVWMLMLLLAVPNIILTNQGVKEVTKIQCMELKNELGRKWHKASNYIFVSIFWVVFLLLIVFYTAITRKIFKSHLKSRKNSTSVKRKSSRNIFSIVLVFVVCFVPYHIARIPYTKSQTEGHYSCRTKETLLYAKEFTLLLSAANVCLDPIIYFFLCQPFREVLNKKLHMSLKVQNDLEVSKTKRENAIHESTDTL
Excerpt: Stable HEK clonal cell lines expressing P2RY14 and the chimeric G protein Gqi5 were constructed. The chimeric Gqi5 forces the coupling of P2RY14 through the Gq (calcium) pathway and allows for monitoring of calcium signaling using a calcium binding fluorescent dye and a FLIPR (fluorometric imaging plate reader, MDS Sciex). Vector pCEP4 comprising the chimeric Gqi5 was obtained from Molecular Devices, Sunnyvale, Calif. (Cat. No. RD-PGQI5).
The nucleic acid encoding the mouse P2RY14 was under the control of the CMV promoter.
Cells were grown in DMEM medium containing 25 mM HEPES, pH 7.4 and 10% FBS, 50 units/ml penicillin/50 μg/ml streptomycin, 2 mM glutamine and 1 mM sodium pyruvate at 37° C. in humidified air containing 5% CO2. Two days post-transfection, cells were grown under selection in the DMEM medium as indicated above and supplemented with 200 μg/ml Hygromycin B and 250 μg/ml geneticin.
Cells were incubated overnight at 37° C. and 5% CO2 to form a monolayer. On the following day, 30 μl of fluorescent no-wash dye was added to the cell monolayer and the plate was incubated for 60 minutes at 37° C., 5% CO2.
For agonist assays, 6.12 μl of 10× agonist solution was added to the cell/dye incubation and Ca^2+ signaling was monitored by FLIPR. For antagonist assays, 250 nl of compound in 100% DMSO was added to cell/dye mixture; following a 20 minute incubation at room temperature, 6.12 μl of 10× agonist solution at EC80 in HBSS containing 20 mM Hepes was added to cells and Ca^2+ signaling was monitored by FLIPR. Quantitation of the % stimulation or inhibition of Ca^2+ signaling by agonist or antagonist, respectively, was calculated using the Max-Min fluorescent signal detected.

simian P2RY14 = test: Membrane filtration binding assay, simian P2RY14; parameters: species or system chimpanzee; settings: simian P2RY14 membranes
Protocol: Membrane preparations were made by N2 cavitation using a Parr unit. […] Cell were Dounce homogenized (size B, 10 strokes) and then added to the cavitation unit. Pressure was adjusted to 800 psi and cells were left under pressure for 30 minutes. Broken cells were released drop by drop and spun at 1000 g for 10 minutes. Supernatent was spun at 160,000 g (rotor type 60 Ti, 40000 rpm for 30 min). Pellet was resuspended in 10 mM HEPES/KOH pH 7.4, 1 mM EDTA in ⅕ the original volume, dounce homogenized (size A, 10 strokes), aliquoted, and frozen at −80° C.
Binding assays were performed in 10 mM Hepes pH 7.4 (KOH), 5 mM MnCl2, 5 mM MgCl2 buffer. Membranes (10 μg/well for human P2RY14 and 30 μg/well for simian P2RY14) were incubated with 10 nM [5.6-^3H] Uridine 5′-triphosphate (UTP), ammonium salt from Amersham Biosciences (# TRK412) in presence of compounds diluted in DMSO (2% final in assay), in a total volume of 100 μl. 50 minutes (human P2RY14) or 60 minutes (simian) P2RY14) incubations were performed at room temperature with shaking. […] To examine the stability of [^3H]-UTP in the membrane filtration binding assay, 100 ul aliquots of the reaction mixture were extracted at 2, 10, 20, 40, 60 and 90 minutes with 100 uL of cold 80 mM EDTA solution (pH 8) and 200 uL of cold Acetonitrile. After mixing, proteins were precipitated by centrifugation at 13000 rpm for 10 minutes at 4° C. […] After 0.5 min at 10:90 50 mM KH2PO4/750 mM KH2PO4, a gradient was applied in order to increase to 100% 750 mM KH2PO4 at 5 min, after which this composition was maintained for an additional 3 min. Samples were kept at 4° C. prior to HPLC analysis

[2] = tested on: HEK cells not expressing P2RY14; test: FLIPR Ca2+ release in HEK cells not expressing P2RY14 (specificity); format: cell-based
mouse P2RY14 [3] = biological target: T1, mouse P2RY14; test: CellKey System live cell functional assay, mouse P2RY14; format: cell-based; settings: HEK cells expressing mouse P2RY14 and Gqi5
Protocol: The Cellkey System™ (MDS Sciex), a novel, live cell, label-free, real-time technology, was used to examine P2RY14 activation following agonist stimulation. The CellKey System™ is based on cellular dielectric spectroscopy (CDS) and monitors changes in impedance of the applied electrical current through the cell monolayer upon receptor activation.
On the following day, growth medium was removed from the cell monolayer and replaced with 135 μl of HBSS pH 7.4 containing 20 mM Hepes for a 30 minutes pre-incubation period at room temperature. Baseline measurements were made for 5 minutes at 28° C. prior to ligand addition. For agonist assays, 15 μl of 10× agonist diluted in HBSS pH 7.4 containing 20 mM HEPES was added to the cell monolayer simultaneously using the 96 multichannel head from the CellKey™ System. Cellular response was monitored for 10 minutes to assess cellular response after ligand addition.

SMILES: O=c1ccn([C@@H]2O[C@H](COP(=O)(O)O)[C@@H](O)[C@H]2O)c(=O)[nH]1 [UMP]
- activation of P2RY14 (Ca2+ signaling) (mouse P2RY14 [1]): activated
- competition for [3H]-UTP/[3H]-UDP binding (simian P2RY14): able to successfully compete
- Ki (simian P2RY14; 10 nM radioligand, read-out: Ki, competition for [3H]-UTP/[3H]-UDP binding): ~1000 nM
- Ca2+ release in cells not expressing P2RY14 [2]: do not stimulate Ca^2+ release
- P2RY14 signaling (impedance, CellKey) (mouse P2RY14 [3]): mediated signaling
